Earlier results, collected in US9346789B2, “Combinations of AKT inhibitor compounds and abiraterone, and methods of use” (Genentech, Inc., priority 2011, dated 2016).

Molecular target: T1, topoisomerase I (Homo sapiens, UniProt P11387)
T1 sequence (P11387 1-765): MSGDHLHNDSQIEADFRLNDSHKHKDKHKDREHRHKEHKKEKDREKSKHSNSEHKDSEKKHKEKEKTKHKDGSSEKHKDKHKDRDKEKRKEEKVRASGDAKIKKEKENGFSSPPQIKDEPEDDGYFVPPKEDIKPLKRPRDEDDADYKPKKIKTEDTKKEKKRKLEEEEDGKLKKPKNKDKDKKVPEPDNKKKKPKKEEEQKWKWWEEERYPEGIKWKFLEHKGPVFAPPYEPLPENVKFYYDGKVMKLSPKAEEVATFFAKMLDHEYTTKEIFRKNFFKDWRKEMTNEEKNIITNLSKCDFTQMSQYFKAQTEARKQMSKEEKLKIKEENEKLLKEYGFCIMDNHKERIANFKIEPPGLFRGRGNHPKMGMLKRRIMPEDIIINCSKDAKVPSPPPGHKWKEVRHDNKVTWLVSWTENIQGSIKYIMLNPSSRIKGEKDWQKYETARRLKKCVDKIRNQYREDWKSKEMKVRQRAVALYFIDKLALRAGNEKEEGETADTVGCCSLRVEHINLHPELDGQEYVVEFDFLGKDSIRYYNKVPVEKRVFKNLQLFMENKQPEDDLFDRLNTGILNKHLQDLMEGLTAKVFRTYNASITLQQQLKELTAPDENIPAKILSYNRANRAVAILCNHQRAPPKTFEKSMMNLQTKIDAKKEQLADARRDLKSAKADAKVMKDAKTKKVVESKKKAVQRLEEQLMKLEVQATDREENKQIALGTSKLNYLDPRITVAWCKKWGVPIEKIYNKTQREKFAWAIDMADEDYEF
Settings: active metabolite versus irinotecan itself

## CCc1c2c(nc3ccc(O)cc13)-c1cc3c(c(=O)n1C2)COC(=O)[C@]3(O)CC [SN-38, 7-ethyl-10-hydroxy-camptothecin]
  activity relative to irinotecan: 200 times
